For test [1], the target named is T1, Electric eel AChE (Electrophorus electricus, UniProt O42275).
T1 construct: purchased Sigma-Aldrich Co. (St. Louis, MO, USA)
As to the kind of experiment: In vitro ChE enzyme assay (Ellman), AChE. Format: biochemical. As for the experimental part:
(§1) Electric eel AChE (EC 3.1.1.7), horse serum BChE (EC 3.1.1.8), acetylthiocholine iodide (ATCh), butyrylthiocholine chloride (BTCh), 5,5-dithiobis[2-nitrobenzoic acid] […] All required reagent-grade chemicals used in this study were purchased from commercial sources. Coumestrol and puerarol were isolated from P. lobata as described by Seong et al..
(§2) The inhibitory activity of coumestrol and puerarol against ChEs was measured using the spectrophotometric methods reported by Ellman et al. and Jung et al.. ATCh and BTCh were used as substrates to assay the inhibition of AChE and BChE, respectively. All reactions were performed in triplicate and were recorded in a 96-well microplate format using a microplate spectrophotometer (Molecular Devices, Sunnyvale, CA, USA). Percent inhibition was calculated as (1 − S/E) × 100, where E and S were the enzyme activities without and with the test sample, respectively.
A general note: In Ellman's method for cholinesterases, released thiocholine reacts with DTNB.

The target of test [2] is T2, BACE1 (Homo sapiens, UniProt P56817).
T2 construct: purchased
Briefly: In vitro BACE1 enzyme assay. The conditions noted are these: mean ± S.E.M of triplicate experiments. Format: biochemical. Here is the method:
The in vitro BACE1 enzyme assay was carried out according to the manufacturer’s recommended protocol with minor modifications. Briefly, a mixture of […] of assay buffer (50 mM sodium acetate, pH 4.5), […] of BACE1 (1.0 U/mL), […] of substrate (750 nM Rh-[…]-Quencher in 50 mM, ammonium bicarbonate) and […] of the test sample was dissolved in 10% DMSO and incubated for 60 min at 25 °C in the dark. Proteolysis of the two fluorophores (Rh-[…]-Quencher) by BACE1 was determined by monitoring formation of the fluorescent donor (Rh-EVNL) at wavelengths of 545 nm for excitation and 585 nm for emission. Fluorescence was measured with a microplate spectrofluorometer (Gemini EM, Sunnyvale, CA, USA).

Test [3] is described as follows: DPPH radical scavenging activity. The conditions noted are these: mean ± S.E.M of triplicate experiments. As for the experimental part: DPPH radical scavenging activity was evaluated using the method of Blois, with slight modification. Test samples and DPPH were dissolved in methanol. Each test sample (160 µL) at various concentrations was added to 40 µL of DPPH solution (1.5 × 10^−4 M). After gently mixing and standing at room temperature for 30 min, the optical density of the reactant was measured at 520 nm using a VERSAmax microplate spectrophotometer (Molecular Devices, Sunnyvale, CA, USA). […] L-Ascorbic acid was used as a positive control.
(In general: Loss of DPPH colour is used to gauge radical scavenging.)

For test [4] the following is noted: cited from earlier work.
Test [5] concerns the target T3, horse serum BChE (Equus caballus, UniProt P81908).
T3 construct: horse serum BChE (EC 3.1.1.8); purchased Sigma-Aldrich Co. (St. Louis, MO, USA); host or cells: horse serum
As to the kind of experiment: Enzyme kinetic analysis for BChE inhibition (Lineweaver-Burk and secondary plots). Format: biochemical. As to conditions: for Inhibition mode, BChE: Lineweaver-Burk plots; for Ki: secondary plot. Here is the method:
(§3) To elucidate the mechanisms of ChE inhibition, kinetic studies of enzyme activity were performed. The slope or intercept in Lineweaver-Burk plots were drawn in SigmaPlot 12.0 as a function of inhibitor concentration, and the kinetic parameters were determined.
(§4) To determine the mechanism of inhibition, AChE, BChE, and BACE1 inhibition was evaluated by monitoring the effects of different concentrations of substrate (0.4 to 0.8 mM for AChE and BChE; 250 to 750 nM for BACE1). Specifically, AChE, BChE, and BACE1 inhibition assays were performed as described above, but the substrate concentration was varied. Inhibition modes of coumestrol and puerarol against ChEs and BACE1 were determined by Lineweaver–Burk plots. Inhibition constants (Ki) were determined by secondary plots.

The nature of test [6]: Western blot analysis for inhibition of ONOO−-mediated nitrotyrosine formation (BSA nitration). Here is the method: Figure 2 Dose-depended inhibition of ONOO^−-mediated albumin nitration by coumestrol and puerarol. Mixtures of test samples, bovine serum albumin (BSA), and ONOO^− were incubated with shaking at 37 °C for 30 min. The reactant was resolved in 10% polyacrylamide gel via electrophoresis. (a) Coumestrol; and (b) puerarol, were used at the indicated concentrations; (c) Quantification of band intensity was calculated using CS Analyzer 3.00 (ATTO Corp., Tokyo, Japan). ^# p < 0.05 indicates a significant difference from the untreated normal group, * p < 0.05 indicate significant differences from the ONOO^− treated control.
The inhibition of ONOO^−-nitrotyrosine formation was evaluated using the method of Aulak et al.. Samples were added to BSA and mixed with ONOO^− (200 µM). After a 10 min incubation period (room temperature), the sample solution was added to Bio-Rad 2X Laemmli Sample buffer with mercaptoethanol and then boiled for 7 min. The reactant was resolved in 10% polyacrylamide gel via electrophoresis and transferred to PVDF membranes. Pre-stained blue protein markers were used for molecular weight determination. […] Densitometric analysis of the western blot results was determined using a CS analyzer v3.00 (ATTO Corp.).
Background: In western blotting, separated proteins are transferred to a membrane and probed.

In test [7] the target is T3, horse serum BChE. Briefly: In vitro ChE enzyme assay (Ellman), BChE. As to conditions: substrate BTCh; mean ± S.E.M of triplicate experiments. Format: biochemical. As for the experimental part:
as §1, §2

Test [8] can be described thus: ONOO− scavenging activity (DHR 123 oxidation). As to conditions: mean ± S.E.M of triplicate experiments; read-out: EC50 Peroxynitrite scavenging. As for the experimental part: In brief, the rhodamine buffer (pH 7.4) consisted of 50 mM sodium phosphate dibasic, 50 mM sodium phosphate monobasic, 90 mM sodium chloride, 5.0 mM potassium chloride, and 100 μM diethylenetriamine pentaacetate. […] The assay buffer was prepared prior to use and placed on ice. Test samples were dissolved in 10% DMSO (100 μM final concentration). The background and final fluorescent intensities were measured 5 min after treatment with and without the addition of authentic ONOO^− (10 μM), dissolved in 0.3 N sodium hydroxide. […] L-penicillamine was used as a positive control.

Test [9] deals with T1, Electric eel AChE. Briefly: Enzyme kinetic analysis for AChE inhibition (Lineweaver-Burk and secondary plots). Format: biochemical. The conditions noted are these: for Inhibition mode, AChE: Lineweaver-Burk plots. As for the experimental part: as §3, §4
In test [10] the target is T2, BACE1. Briefly: Enzyme kinetic analysis for BACE1 inhibition (Lineweaver-Burk and secondary plots). Format: biochemical. The conditions noted are these: for Inhibition mode, BACE1: Lineweaver-Burk plots; for Ki: secondary plot. Here is the method:
as §3, §4

The mark [11] stands for this setting: substrate ATCh, mean ± S.E.M of triplicate experiments, read-out: IC50 AChE.

Entries after “also recorded” stand apart in the source; their conditions may differ. Where two headings read alike, the source gives them in different places. A value given as a limit tells only on which side of the number the result lay.

T3 sequence (P81908 whole entry): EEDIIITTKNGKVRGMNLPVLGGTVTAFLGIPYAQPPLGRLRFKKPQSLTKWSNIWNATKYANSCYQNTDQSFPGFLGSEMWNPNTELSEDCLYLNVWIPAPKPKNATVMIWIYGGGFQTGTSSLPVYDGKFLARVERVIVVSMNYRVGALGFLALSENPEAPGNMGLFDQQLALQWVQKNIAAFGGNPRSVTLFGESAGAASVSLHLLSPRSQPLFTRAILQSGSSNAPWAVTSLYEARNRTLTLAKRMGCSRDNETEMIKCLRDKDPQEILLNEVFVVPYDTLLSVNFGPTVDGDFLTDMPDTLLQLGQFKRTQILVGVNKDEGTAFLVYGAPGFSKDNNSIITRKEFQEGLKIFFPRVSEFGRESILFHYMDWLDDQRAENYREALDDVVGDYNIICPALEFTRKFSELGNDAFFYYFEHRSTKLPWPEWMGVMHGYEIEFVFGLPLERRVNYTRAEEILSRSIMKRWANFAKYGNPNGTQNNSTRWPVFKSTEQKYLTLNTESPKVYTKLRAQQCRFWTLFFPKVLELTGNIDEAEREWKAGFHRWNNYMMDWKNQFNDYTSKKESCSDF
T2 sequence (P56817 46-501): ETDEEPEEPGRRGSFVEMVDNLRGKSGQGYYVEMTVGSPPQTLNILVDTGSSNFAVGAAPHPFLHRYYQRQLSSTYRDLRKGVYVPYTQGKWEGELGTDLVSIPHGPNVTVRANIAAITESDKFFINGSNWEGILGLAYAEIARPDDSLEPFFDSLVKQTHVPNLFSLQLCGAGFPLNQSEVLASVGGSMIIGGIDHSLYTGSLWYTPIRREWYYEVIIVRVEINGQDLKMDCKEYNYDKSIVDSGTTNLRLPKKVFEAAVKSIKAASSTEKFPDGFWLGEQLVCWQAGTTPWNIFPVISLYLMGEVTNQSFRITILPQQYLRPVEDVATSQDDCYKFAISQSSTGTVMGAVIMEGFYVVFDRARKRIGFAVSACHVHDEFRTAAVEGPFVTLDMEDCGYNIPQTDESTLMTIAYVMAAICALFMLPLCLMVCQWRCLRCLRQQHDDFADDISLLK
T1 sequence (O42275 24-633): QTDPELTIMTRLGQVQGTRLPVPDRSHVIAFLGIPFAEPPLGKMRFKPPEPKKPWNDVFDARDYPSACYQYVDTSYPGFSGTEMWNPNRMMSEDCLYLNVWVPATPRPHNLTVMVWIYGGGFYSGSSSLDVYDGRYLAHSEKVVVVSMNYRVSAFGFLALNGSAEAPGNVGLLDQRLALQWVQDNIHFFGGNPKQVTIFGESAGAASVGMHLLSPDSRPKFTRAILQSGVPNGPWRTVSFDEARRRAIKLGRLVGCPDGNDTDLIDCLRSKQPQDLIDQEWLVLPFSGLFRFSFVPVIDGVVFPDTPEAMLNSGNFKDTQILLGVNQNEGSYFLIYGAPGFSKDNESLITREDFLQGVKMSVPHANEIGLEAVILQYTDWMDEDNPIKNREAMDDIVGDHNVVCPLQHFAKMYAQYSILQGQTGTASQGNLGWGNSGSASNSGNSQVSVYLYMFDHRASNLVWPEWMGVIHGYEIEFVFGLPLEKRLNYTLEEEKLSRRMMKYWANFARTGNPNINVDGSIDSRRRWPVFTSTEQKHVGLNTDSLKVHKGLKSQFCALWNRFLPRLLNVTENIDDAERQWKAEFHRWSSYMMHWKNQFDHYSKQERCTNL

By IC50 is commonly meant the concentration at which inhibition is half-maximal. In the case of `COc1ccc2cc3[n+](cc2c1OC)CCc1cc2c(cc1-3)OCO2` [Berberine, berberine chloride, reference compound], the IC50 at Electric eel AChE [1] stood at 2.22 ± 0.02 µM.

Usually EC50 stands for the concentration giving half of the maximal effect. As usually defined, the Ki is a measure of affinity in units of concentration, obtained from inhibition or displacement. As to `O=c1oc2cc(O)ccc2c2oc3cc(O)ccc3c12` [Coumestrol], the half-maximal inhibitory concentration (IC50) at BACE1 [2] was found to be 51 ± 1.86 µM; at Electric eel AChE [1] (setting [11]), 42.3 ± 1.29 µM; against horse serum BChE [7] it was 24.6 ± 2.28 µM. In addition, the EC50 in test [3] amounted to 54 ± 1 µM; in [8], 1.17 ± 0.11 µM. Moreover, in test [4] (ref 29 (Booth et al.)), the DPPH scavenging entry is listed as “inactivity”. For the same molecule, the results for the “Inhibition mode, BChE” value on horse serum BChE [5] and on horse serum BChE [5] (listed as coumestrol) were “Mixed-type” and “mixed type”, respectively. The Ki was 41.9 µM at horse serum BChE [5] (binding constant of inhibitor with enzyme-substrate complex, read-out: Ki value Kiu, BChE); 12.1 µM on horse serum BChE [5] (binding constant of inhibitor with free enzyme, read-out: Ki value Kic, BChE); 48.9 µM on Electric eel AChE [9] (secondary plot, binding constant of inhibitor with free enzyme, read-out: Ki value Kic, AChE). Also, in [6] (10 µM to 100 µM), the “Blot intensity of ONOO−-mediated nitrated BSA” value was “dose dependent decrease”. Moreover, the “Inhibition mode, AChE” value at Electric eel AChE [9] is given as “Competitive”; on Electric eel AChE [9] (listed as coumestrol), “competitive”.

In the case of `O=C1O[C@H]([C@@H](O)CO)C(O)=C1O` [L-Ascorbic acid, reference compound], in test [3], the EC50 was determined as 17.4 ± 0.32 µM.

For the molecule `CC(C)=CCCC(C)=CCc1cc2c(cc1O)oc(=O)c1c3ccc(O)cc3oc21` [Puerarol], the “Inhibition mode, BACE1” value is recorded as “Mixed-type ^e” on BACE1 [10] and “mixed inhibition; also recorded: mixed type” on BACE1 [10] (listed as puerarol). In addition, the Ki on BACE1 [10] (binding constant of inhibitor with enzyme-substrate complex, read-out: Ki value Kiu, BACE1) stood at 73.2 µM; on BACE1 [10] (binding constant of inhibitor with free enzyme, read-out: Ki value Kic, BACE1) it was 33.8 µM. Moreover, the IC50 was 28.2 ± 2.48 µM against BACE1 [2], 145 ± 2.46 µM on Electric eel AChE [1] (setting [11]) and above 200 µM against horse serum BChE [7]. Besides, the EC50 in test [3] was determined as 82.5 ± 1.33 µM; in test [8], 6.99 ± 0.3 µM. Moreover, the “Blot intensity of ONOO−-mediated nitrated BSA” value in test [6] (50–200 µM) is “dose dependent decrease”.

In the case of `COc1cc(O)c2c(c1)oc(=O)c1c3cc(O)c(O)cc3oc21` [wedelolactone, reference compound], the IC50 in test [4] (read-out: DPPH scavenging activity IC50) was 7 µM.

(Values after paper PMC6017171, “Comparative Evaluation of the Antioxidant and Anti-Alzheimer’s Disease Potential of Coumestrol and Puerarol Isolated from Pueraria lobata Using Molecular Modeling Studies” (Molecules : A Journal of Synthetic Chemistry and Natural …, 2018).)
